The text below walks through data of patent EP0558245A1, “Heterobicyclic compounds as antagogists of alpha-1 adrenergic and SHT1A receptors” (priority 1992, dated 1993).

Like-named read-outs stand apart in the source and are kept apart here.

One data set has as its target α₁ receptors. The data set is described as follows: [3H]prazosin binding (α1 receptors), rat cerebral cortex membranes. To be noted: rat cerebral cortex crude membranes, [3H]prazosin 0.35 nM, 25°C 30 min; read-out: Receptor Binding IC50 (nM) α1.
Data set [1] is described as follows: Acute toxicity in mice after intraperitoneal and oral administration. To be noted: mouse, in vivo, female albino Swiss mice, mortality recorded 7 days after administration. The procedure: Male Sprague Dawley rats [Crl: CD' BR] of 200-300 g b.w., female Albino Swiss mice [Crl: CD-1 (ICR) BR] 20-30 g b.w., and male Beagle dogs (10-12 kg b.w.) were obtained from Charles River, Italy and Nossan (Correzzana, Milan, Italy), respectively. Animals were housed with free access to food and water and maintained on forced light-dark cycle at 22-24°C until the day of experiments.
The acute toxicity of synthesized compounds was evaluated in female albino Swiss mice after intraperitoneal and oral administration. Four logarithmic scaled doses of the compounds were dissolved or suspended in 0.5% Methocel and administered in a volume of 10 ml/kg to groups of 4 mice/dose. Mortality was recorded 7 days after the administration. Data analysis: the LD₅₀ values and their fiducial limits were calculated according to the method of Weil (Biometrics, 8, 249, 1952).

A further data set deals with T1, 5HT1A receptors (Rattus norvegicus, UniProt P19327).
T1 construct: Rat hippocampi were homogenized; from tissue; host or cells: rat hippocampus membranes
T1 sequence (P19327 1-422): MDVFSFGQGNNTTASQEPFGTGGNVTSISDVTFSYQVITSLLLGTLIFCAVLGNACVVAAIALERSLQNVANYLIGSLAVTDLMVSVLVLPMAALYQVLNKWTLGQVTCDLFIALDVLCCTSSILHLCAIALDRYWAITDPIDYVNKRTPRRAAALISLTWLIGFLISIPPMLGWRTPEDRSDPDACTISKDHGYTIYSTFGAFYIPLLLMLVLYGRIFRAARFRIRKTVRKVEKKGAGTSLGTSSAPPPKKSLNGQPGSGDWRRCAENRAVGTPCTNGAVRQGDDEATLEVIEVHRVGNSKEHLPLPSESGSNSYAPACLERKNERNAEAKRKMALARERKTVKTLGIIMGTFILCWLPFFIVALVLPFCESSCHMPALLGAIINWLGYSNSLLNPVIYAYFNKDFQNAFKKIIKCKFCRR
The data set is described as follows: [3H]8-OH-DPAT binding (5HT1A receptors), rat hippocampus membranes.

[2] abbreviates: ip, intraperitoneal, read-out: Acute Toxicity in Mice LD50 (mg/kg) i.p.
Setting [3] is: oral, read-out: Acute Toxicity in Mice LD50 (mg/kg) p.o.
The mark [4] stands for this setting: rat hippocampus crude membranes, [3H]8-OH-DPAT 1.0 nM, 25°C 30 min, read-out: Receptor Binding IC50 (nM) 5-HT1a.

Protocol for 5HT1A receptors: Rat hippocampi were homogenized in 50 volumes of original wet weight of ice-cold 50 mM Tris-HCl buffer pH 7.4. The homogenates were centrifuged at 48,000 x g for 10 minutes, and the pellets were resuspended in the same volume of ice-cold buffer, incubated for 10 minutes at 37°C, centrifuged and resuspended two more times. The final pellets obtained were resuspended in the same volume of buffer and incubated according to the conditions reported in the table below.
The incubations were terminated after the appropriate time (see table) by rapid filtration through Whatman GF/B filters using a Brandel cell harvester. The filters were washed twice with 15 ml of ice-cold buffer (see table). The radioactivity retained on the filters was determined by liquid scintillation counting. Nonspecific binding (which amounted generally to 10-30%) was evaluated by adding high concentrations of the specific displacers (see table). All the compounds were initially tested at 1x10⁻⁶ M concentration, and in the presence of significant displacing activity, a complete competition curve was generated (down to a concentration of 10⁻¹¹ M). All the samples were run in triplicate.
The competition curves were always analyzed (to evaluate the IC₅₀ values) by non linear curve fitting of the logistic equation according to the method reported by De Lean et al. (Am. J. Physiol., 235, E97, 1978), utilizing the ALLFIT program [publically available from the National Institutes of Health (N.I.H.) Bethesda, Maryland, USA] written for the IBM PC.

The term IC50 denotes the concentration that gives 50% inhibition. Turning to `COc1ccccc1N1CCN(CCNC(=O)Nc2cccc3c(=O)c(C)c(-c4ccccc4)oc23)CC1.CS(=O)(=O)O` [Example 38, 8-{2-[4-(2-methoxyphenyl)-1-piperazinyl]-ethylureido}-3-methyl-4-oxo-2-phenyl-4H-1-benzopyran methanesulphonate], the values for the IC50 on α₁ receptors and at 5HT1A receptors (setting [4]) were 20 nM and 344 nM, respectively. Moreover, the LD50 at 168 h in data set [1] (setting [2]) was greater than 500 mg/kg; in data set [1] (setting [3]), greater than 2000 mg/kg.
As for `COc1ccccc1N1CCN(CCOc2cccc3c(=O)c(C)c(-c4ccccc4)oc23)CC1.Cl.O` [Example 39, 8-{2-[4-(2-methoxyphenyl)-1-piperazinyl]-ethoxy}-3-methyl-4-oxo-2-phenyl-4H-1-benzopyran hydrochloride hydrate], the half-maximal inhibitory concentration (IC50) at α₁ receptors was 90 nM; at 5HT1A receptors (setting [4]) it was 170 nM. Further, the LD50 at 168 h in data set [1] (setting [2]) was greater than 1000 mg/kg; in data set [1] (setting [3]) it was greater than 3000 mg/kg.
As for `COc1ccccc1N1CCN(CCNS(=O)(=O)c2cccc3c(=O)c(C)c(-c4ccccc4)oc23)CC1.Cl` [Example 48, 8-{2-[4-(2-methoxyphenyl)-1-piperazinyl]-ethylsulphamoyl}-3-methyl-4-oxo-2-phenyl-4H-1-benzopyran hydrochloride], the IC50 on α₁ receptors was found to be 104 nM; on 5HT1A receptors (setting [4]) it was 5 nM. Besides, the LD50 at 168 h in data set [1] (setting [2]) came out at 500 mg/kg; in data set [1] (setting [3]) it was 1910 mg/kg.
With `COc1ccccc1N1CCN(CCN(C)S(=O)(=O)c2cccc3c(=O)c(C)c(-c4ccccc4)oc23)CC1.Cl` [Example 49, 8-{N-methyl-2-[4-(2-methoxyphenyl)-1-piperazinyl]-ethylsulphamoyl}-3-methyl-4-oxo-2-phenyl-4H-1-benzopyran hydrochloride], the results for the IC50 at α₁ receptors and at 5HT1A receptors (setting [4]) were 152 nM and 9 nM, respectively. Further, the values for the LD50 at 168 h in data set [1] (setting [2]) and in data set [1] (setting [3]) were 432 mg/kg and greater than 2000 mg/kg, respectively.
With `COc1ccccc1N1CCN(CCCN(C(N)=O)c2cccc3c(=O)c(C)c(-c4ccccc4)oc23)CC1` [Example 50, 8-{N-carbamoyl-3-[4-(2-methoxyphenyl)-1-piperazinyl]-propylamino}-3-methyl-4-oxo-2-phenyl-4H-1-benzopyran methanesulphonate hemihydrate], the IC50 came to 39 nM on α₁ receptors and 300 nM at 5HT1A receptors (setting [4]). In addition, the figures for the LD50 at 168 h in data set [1] (setting [2]) and in data set [1] (setting [3]) were 211 mg/kg and 299 mg/kg, respectively.
For `Cc1c(-c2ccccc2)oc2c(C(=O)NCCCNCC3COc4ccccc4O3)cccc2c1=O` (centres unmarked) [Example 52, 8-{3-[2-(1,4-benzodioxanyl)methylamino]propylcarbamoyl}-3-methyl-4-oxo-2-phenyl-4H-1-benzopyran methansulphonate], the 50% inhibitory concentration (IC50) at α₁ receptors was 89 nM; at 5HT1A receptors (setting [4]), 2 nM. The LD50 at 168 h was 127 mg/kg in data set [1] (setting [2]) and 224 mg/kg in data set [1] (setting [3]).
Turning to `COc1ccccc1N1CCN(CCCCc2cccc3c(=O)c(C)c(-c4ccccc4)oc23)CC1.CS(=O)(=O)O` [Example 53, 8-{4-[4-(2-methoxyphenyl)-1-piperazinyl]-butyl}-3-methyl-4-oxo-2-phenyl-4H-1-benzopyran methanesulphonate], the IC50 was found to be 7 nM on α₁ receptors and 41 nM at 5HT1A receptors (setting [4]). Besides, the figures for the LD50 at 168 h in data set [1] (setting [2]) and in data set [1] (setting [3]) were 127 mg/kg and 1020 mg/kg, respectively.
`CS(=O)(=O)O.Cc1c(-c2ccccc2)oc2c(C(=O)NCCCN3CCC(c4ccccc4)CC3)cccc2c1=O` [Example 54, 8-[3-(4-phenyl-1-piperidinyl)-propylcarbamoyl]-3-methyl-4-oxo-2-phenyl-4H-1-benzopyran methansulphonate]: the results for the half-maximal inhibitory concentration (IC50) on α₁ receptors and at 5HT1A receptors (setting [4]) were 35 nM and 143 nM, respectively. The values for the LD50 at 168 h in data set [1] (setting [2]) and in data set [1] (setting [3]) were 106 mg/kg and 421 mg/kg, respectively.
Consider `CS(=O)(=O)O.Cc1c(-c2ccccc2)oc2c(C(=O)NCCCN3CCC(c4ccccc4)(c4ccccc4)CC3)cccc2c1=O` [Example 55, 8-[3-(4,4-diphenyl-1-piperidinyl)-propylcarbamoyl]-3-methyl-4-oxo-2-phenyl-4H-1-benzopyran methansulphonate], for which the IC50 at α₁ receptors was 291 nM; on 5HT1A receptors it was greater than 1000 nM. Further, the LD50 at 168 h in data set [1] (setting [2]) is 128 mg/kg; in data set [1] (setting [3]), no less than 2000 mg/kg.
For `Cc1c(-c2ccccc2)oc2c(C(=O)NCCCN3CCC(C(=O)c4ccc(F)cc4)CC3)cccc2c1=O` [Example 56, 8-{3-[4-(4-fluorobenzoyl)-1-piperidinyl]-propyl-carbamoyl}-3-methyl-4-oxo-2-phenyl-4H-1-benzopyran], the IC50 turned out to be 25 nM on α₁ receptors and 748 nM on 5HT1A receptors (setting [4]). For the same molecule, the LD50 at 168 h in data set [1] (setting [2]) is greater than 500 mg/kg.
On to `Cc1c(-c2ccccc2)oc2c(C(=O)NCCCN3CCC(n4c(=O)[nH]c5ccccc54)CC3)cccc2c1=O` [Example 57, 8-{3-[4-(2-oxo-1-benzimidazolinyl)-1-piperidinyl]-propylcarbamoyl-}-3-methyl-4-oxo-2-phenyl-4H-1-benzopyran], for which the IC50 on α₁ receptors is 69 nM; at 5HT1A receptors (setting [4]), greater than 1000 nM. Besides, the LD50 at 168 h is 500 mg/kg in data set [1] (setting [2]) and greater than 2000 mg/kg in data set [1] (setting [3]).
As for `CS(=O)(=O)O.Cc1c(-c2ccccc2)oc2c(C(=O)NCCCN3CCN(c4ncccn4)CC3)cccc2c1=O` [Example 58, 8-{3-[4-(2-pyrimidinyl)-1-piperazinyl]-propylcarbamoyl}-3-methyl-4-oxo-2-phenyl-4H-1-benzopyran methanesulphonate], the IC50 is no less than 1000 nM on α₁ receptors and 126 nM at 5HT1A receptors (setting [4]). In addition, the figures for the LD50 at 168 h in data set [1] (setting [2]) and in data set [1] (setting [3]) were 258 mg/kg and 508 mg/kg, respectively.
On the same counts, the results for `Cc1c(-c2ccccc2)oc2c(C(=O)NCCCN3CCN(c4ccccc4O)CC3)cccc2c1=O` [Example 59, 8-{3-[4-(2-hydroxyphenyl)-1-piperazinyl]-propylcarbamoyl}-3-methyl-4-oxo-2-phenyl-4H-1-benzopyran] are 5 nM, 9 nM, greater than 500 mg/kg and 278 mg/kg.
On the same counts, the results for `COc1ccccc1N1CCN(CCCCNC(=O)c2cccc3c(=O)c(C)c(-c4ccccc4)oc23)CC1.CS(=O)(=O)O` [Example 60, 8-{4-[4-(2-methoxyphenyl)-1-piperazinyl]-butylcarbamoyl}-3-methyl-4-oxo-2-phenyl-4H-1-benzopyran methansulphonate] are 25 nM, 45 nM, 203 mg/kg and 329 mg/kg.
`COc1ccccc1N1CCN(CCCNS(=O)(=O)c2cccc3c(=O)c(C)c(-c4ccccc4)oc23)CC1.CS(=O)(=O)O` [Example 61, 8-{3-[4-(2-methoxyphenyl)-1-piperazinyl]-propylsulphamoyl}-3-methyl-4-oxo-2-phenyl-4H-1-benzopyran methanesulphonate]: the values for the IC50 on α₁ receptors and on 5HT1A receptors (setting [4]) were 36 nM and 11 nM, respectively. Moreover, the LD50 at 168 h in data set [1] (setting [2]) is 315 mg/kg; in data set [1] (setting [3]), 592 mg/kg.
For `COc1ccccc1OCCN(C)CCCNC(=O)c1cccc2c(=O)c(C)c(-c3ccccc3)oc12.Cl` [Example 62, 8-{3-[N-methyl-2-(2-methoxyphenoxy)-ethylamino]-propylcarbamoyl}-3-methyl-4-oxo-2-phenyl-4H-1-benzopyran hydrochloride], in that order: 252 nM, 278 nM, 128 mg/kg and 344 mg/kg.
As for `COc1ccccc1N1CCN(CCC(=O)N(C)c2cccc3c(=O)c(C)c(-c4ccccc4)oc23)CC1.CS(=O)(=O)O` [Example 63, 8-{N-methyl-3-[4-(2-methoxyphenyl)-1-piperazinyl]-propionamido}-3-methyl-4-oxo-2-phenyl-4H-1-benzopyran methanesulphonate], the IC50 on α₁ receptors was 194 nM; on 5HT1A receptors (setting [4]) it was 99 nM. In addition, the LD50 at 168 h in data set [1] (setting [2]) was 309 mg/kg; in data set [1] (setting [3]), 479 mg/kg.
`COc1ccccc1N1CCN(CCOC(=O)Cc2cccc3c(=O)c(C)c(-c4ccccc4)oc23)CC1.Cl.Cl` [Example 66, 8-{2-[4-(2-methoxyphenyl)-1-piperazinyl]-ethoxycarbonylmethyl}-3-methyl-4-oxo-2-phenyl-4H-1-benzopyran dihydrochloride]: the figures for the IC50 on α₁ receptors and at 5HT1A receptors (setting [4]) were 57 nM and 56 nM, respectively. Moreover, the LD50 at 168 h in data set [1] (setting [3]) was found to be 601 mg/kg.
In the case of `COc1ccccc1N1CCN(CCCCNS(=O)(=O)c2cccc3c(=O)c(C)c(-c4ccccc4)oc23)CC1.CS(=O)(=O)O.CS(=O)(=O)O` [Example 67, 8-{4-[4-(2-methoxyphenyl)-1-piperazinyl]-butylsulphamoyl}-3-methyl-4-oxo-2-phenyl-4H-1-benzopyran dimethanesulphonate], the IC50 on α₁ receptors and on 5HT1A receptors (setting [4]) was 4 nM throughout. The LD50 at 168 h in data set [1] (setting [2]) amounted to 508 mg/kg; in data set [1] (setting [3]), 1870 mg/kg.
